The source of these data is patent EP1347751B1, “METHODS OF TREATING BONE CANCER AND THE PAIN ASSOCIATED THEREWITH USING ENDOTHELIN ANTAGONISTS” (ABBOTT LABORATORIES, priority 2000, dated 2002).

Assay [1] can be described thus: Visual Analog Scale (VAS) pain assessment in treated subjects. In kind it is in vivo, human. As to conditions: men with symptomatic hormone refractory prostate cancer; 2.5 mg or 10 mg vs placebo; independent of the effects of morphine; AUC, Figure 3. The method, then: (§1) Studies were performed on male subjects with asymptomatic hormone refractory prostate cancer with rising PSA levels and on male subjects with symptomatic hormone refractory prostate cancer with rising PSA levels and pain. Subjects in the phase II studies had castrate levels of testosterone, either due to pharmacologic intervention, via leuprolide (Lupron®) or goserelin (Zoladex®), or via surgical castration. Subjects received ABT-627 or placebo. The following tests were conducted: • ABT-627 was formulated in 2.5 and 10 mg doses. An oral liquid formulation of ABT-627 was also prepared as follows: 1 mg/ml ABT-627, 50% glycerin, 14% alcohol, and water. Matching placebos were also provided. […]
During the course of the study, pain asessments were done daily, at bedtime, by the subject. […] The log also contained a table on which was recorded all daily pain medication consumed by the patient. […] Clinical personnel who received the logs measured the score by measuring the distance (in mm) from the "no pain" end mark to the point where the subject's line crossed the VAS line. […]
The weekly VAS scores were calculated excluding the lowest and highest score for each week and averaging the remaining five scores. […]

For a further assay, the system named is Chromagranin-A. In words: Chromagranin-A levels in serum of treated subjects (two site chemiluminescence assay, ICMA). The settings on record: men with hormone refractory prostate cancer, 2.5 mg/day, AUC, Figure 8. The assay is classed as in vivo, human. The method, then: (§2) Studies were performed on male subjects with asymptomatic hormone refractory prostate cancer with rising PSA levels and on male subjects with symptomatic hormone refractory prostate cancer with rising PSA levels and pain. Subjects in the phase II studies had castrate levels of testosterone, either due to pharmacologic intervention, via leuprolide (Lupron®) or goserelin (Zoladex®), or via surgical castration. Subjects received ABT-627 or placebo. The following tests were conducted: • ABT-627 was formulated in 2.5 and 10 mg doses. An oral liquid formulation of ABT-627 was also prepared as follows: 1 mg/ml ABT-627, 50% glycerin, 14% alcohol, and water. Matching placebos were also provided.
(§3) A number of recognized or putative biochemical markers of disease progression have been used to monitor treatment of individuals with prostate cancer. […]
The effect of ABT-627 adminstration on Chromagranin-A levels in human serum samples was determined by proprietary assay conducted at the Nichols Institute. […] The bound, acridinium-labeled material produces light that is detected in a luminometer after addition of triggering agents. […]

Assay [2] has as its system prostate specific antigen (PSA). In words: Prostate Specific Antigen level assay (Chiron ACS: Centaur PSA2 sandwich immunoassay) in serum of treated subjects. As to conditions: men with hormone refractory prostate cancer; oral 2.5 mg or 10 mg vs placebo; AUC, Figure 2. In kind it is in vivo, human. The method, then: as §2, §3
The effect of ABT-627 administration on prostate specific antigen (PSA) levels in human subject serum samples was determined using the procedure described in the Chiron Diagnostics ACS: Centaur PSA2 Assay. […]
Briefly, a subject population was treated with a placebo or 2.5 mg or 10 mg of ABT-627. […] A direct relationship exists between the amount of PSA present in the patient sample and the RLU's (relative light units) detected.

Assay [3] deals with carboxyterminal cross-linked telopeptide of type I collagen (ICTP). In words: Crosslinked N-telopeptide levels in treated subjects (DiaSorin ICTP radioimmunoassay). The assay is classed as in vivo. As to conditions: men with hormone refractory prostate cancer; human serum; 10 mg vs placebo; AUC, Figure 4. The method, then:
as §2
(§4) Markers of osteoblastic activity were assessed using urine samples. Bone markers include bone alkaline phosphatase (BAP), deoxypridinoline, and N-telopeptide of Type I collagen. Blood samples were collected prior to dosing on Day 1, Day 42, Day 84, Day 168, and every 28 days after Day 168, with a final collection on the last day of the study.
Cross-linked N-telopeptide levels were determined using the DiaSorin (Stillwater, MN) assay for the quantitative determination of carboxyterminal cross-linked telopeptide of type I collagen (ICTP) in human serum by equilibrium radioimmunoassay (RIA). […] The bound tracer in the pellet was counted with a gamma counter. […]

Assay [4] concerns bone alkaline phosphatase (BAP). In words: Bone Alkaline Phosphatase levels in treated subjects (Alkphase-B assay). The assay is classed as in vivo, human. As to conditions: men with hormone refractory prostate cancer; 10 mg vs placebo; AUC, Figure 5. The method, then: as §2, §4
Bone Alkaline Phosphatase levels were determined using the bone-specific Alkphase-B® assay published by Metra Biosystems (Mountain View, CA).

A further assay concerns Interleukin-6. In words: Interleukin-6 levels in serum of treated subjects (sandwich immunoassay). The assay is classed as in vivo, human. The settings on record: men with hormone refractory prostate cancer, 2.5 mg or 10 mg vs placebo, AUC, Figure 1. The method, then: as §2, §3
The effect of ABT-627 adminstration on Interleukin-6 levels in human serum samples was determined at Quintiles Laboratories using a sandwich immunoassay. […] After incubation, the wells were washed, and the bound enzymatic activity was measured using a chromogenic substrate. […]

The test system of another assay is Acid Phosphatase (ACP). In words: Acid Phosphatase levels in serum of treated subjects (Sigma Diagnostics ACP Procedure No. 435). In kind it is in vivo, human. As to conditions: men with hormone refractory prostate cancer, treated vs placebo, AUC, Figure 7. The method, then:
as §1
The effect of ABT-627 administration on Acid Phosphatase levels in human subject serum samples was determined at Quintiles Laboratories using the chemical test described in Sigma Diagnostics Acid Phosphatase (ACP) Procedure No. 435. […] The alpha-naphthol immediately reacts with fast red TR salt to produce a yellow chromophore with an absorbance maximum at 405 nm. The rate of increase in absorbance at 405 nm is directly proportional to ACP activity in the sample. ACP activity was determined in the presence and absence of L-tartrate, the difference being attributed to prostatic acid phosphatase activity. […]

A short description of assay [5]: Bone scan (Tc-99m phosphonate, bone scan index) in treated subjects. The assay is classed as in vivo, human. As to conditions: men with hormone refractory prostate cancer; bone scans; 10 mg versus placebo; Figure 6. The method, then: as §2
Bone scans were performed with an NDA approved, Tc-99m phosphonate type radiopharmaceutical. This technique uses whole body format (skull to feet) so that anterior and posterior images are presented when using a 510 K-approved gamma camera. […] Each site was evaluated against a confidence score of 1 to 5, where 1 is negative, 2 is probably negative, 3 is equivocal, 4 is probably positive, and 5 is definitely positive. […] In addition, in a blinded study, a reference nuclear medicine physician interpreted the bone scans quantitatively as follows: the percent of involved bone was estimated for each individual bone, and the individual bone involvement was summed to calculate a global percent bone scan index (BSI). […]

On to `CCCCN(CCCC)C(=O)CN1C[C@H](c2ccc3c(c2)OCO3)[C@@H](C(=O)O)[C@@H]1c1ccc(OC)cc1` [ABT-627], for which the “VAS scores (pain)” value in assay [1] is “decrease in pain”. Moreover, the “average change from baseline for Chromagranin-A” value in the assay with Chromagranin-A is “higher”. Further, the “rate of increase of PSA in the serum samples” value in assay [2] is on record as “decreases”. In assay [3], the “Crosslinked N-telopeptide levels” value is reported as “decreased”. Besides, the BAP levels result in assay [4] is reported as “decreased”. In addition, the “average change in baseline for Interleukin-6” value with Interleukin-6 is on record as “lower”. Besides, in the assay on Acid Phosphatase (ACP), the “average change from baseline for acid phosphatase” value is “decreased” and the “rate of increase for acid phosphatase” value is on record as “decreased”. In assay [5], the “proportion of total skeketal involvement” value is on record as “decrease in the proportion of total skeketal involvement”.
